# Where “and” joins values, the source holds several entries; their conditions need not be identical. Identical values can stand only once. Toxic doses and inconclusive results are not listed.
# Tested on: P388 leukemia ip, CD2F1 mice, survival T/C
# Assay: NCI In Vivo Anticancer Drug Screen. Data for tumor model P388 Leukemia (intraperitoneal) in CD2F1 (CDF1) mice
# Settings: endpoint: median survival time, higher = longer survival
# Method in brief: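 Mice carrying the transplanted tumor received test compound or vehicle. Survival was recorded in each group, and the value is the treated-group measurement divided by that of the vehicle-treated control group.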
# [1] = dose: 100.0 mg/kg/injection, schedule: Q04DX002 (ip), vehicle: saline with Tween-80
# [2] = dose: 25.0 mg/kg/injection, schedule: Q01DX009 (ip), vehicle: suspension in saline
# [3] = dose: 50.0 mg/kg/injection, schedule: Q01DX009 (ip), vehicle: saline with Tween-80
# [4] = dose: 100.0 mg/kg/injection, schedule: Q01DX009 (ip), vehicle: saline with Tween-80
# [5] = dose: 200.0 mg/kg/injection, schedule: Q01DX009 (ip), vehicle: saline with Tween-80
# [6] = dose: 60.0 mg/kg/injection, schedule: Q01DX005 (ip), vehicle: saline with Tween-80
# [7] = dose: 120.0 mg/kg/injection, schedule: Q01DX005 (ip), vehicle: saline with Tween-80
# [8] = dose: 240.0 mg/kg/injection, schedule: Q01DX005 (ip), vehicle: saline with Tween-80
# [9] = dose: 60.0 mg/kg/injection, schedule: Q01DX005 (ip), vehicle: Klucel (hydroxypropylcellulose) (HPC)
# [10] = dose: 25.0 mg/kg/injection, schedule: Q01DX009 (ip), vehicle: saline with Tween-80
# [11] = dose: 15.0 mg/kg/injection, schedule: Q01DX005 (ip), vehicle: Klucel (hydroxypropylcellulose) (HPC)
# [12] = dose: 30.0 mg/kg/injection, schedule: Q01DX005 (ip), vehicle: Klucel (hydroxypropylcellulose) (HPC)
# [13] = dose: 25.0 mg/kg/injection, schedule: Q01DX005 (ip), vehicle: Klucel (hydroxypropylcellulose) (HPC)
# [14] = dose: 50.0 mg/kg/injection, schedule: Q01DX005 (ip), vehicle: Klucel (hydroxypropylcellulose) (HPC)
# [15] = dose: 100.0 mg/kg/injection, schedule: Q01DX005 (ip), vehicle: Klucel (hydroxypropylcellulose) (HPC)
# [16] = dose: 50.0 mg/kg/injection, schedule: Q01DX005 (ip), vehicle: saline
# [17] = dose: 100.0 mg/kg/injection, schedule: Q01DX005 (ip), vehicle: saline
# [18] = dose: 400.0 mg/kg/injection, schedule: Q01DX009 (ip), vehicle: saline with Tween-80
smiles,measurement,setting,value
CCCCOP(O)(=S)OCCCC.[Yb],T/C,[1],96 % of control
same,T/C,"dose: 200.0 mg/kg/injection, schedule: Q04DX002 (ip), vehicle: saline with Tween-80",101 % of control
same,T/C,"dose: 400.0 mg/kg/injection, schedule: Q04DX002 (ip), vehicle: saline with Tween-80",99 % of control
CC(C)C12CCC(=O)C=C1CCCC2O (stereo not drawn),T/C,"dose: 100.0 mg/kg/injection, schedule: Q01DX009 (ip), vehicle: saline sonified",90 % of control
same,T/C,"dose: 200.0 mg/kg/injection, schedule: Q01DX009 (ip), vehicle: saline sonified",100 % of control
same,T/C,"dose: 400.0 mg/kg/injection, schedule: Q01DX009 (ip), vehicle: saline sonified",109 % of control
Nc1nc(-c2ccccc2)nc(-c2ccccc2)n1,T/C,"dose: 2.5 mg/kg/injection, schedule: Q01DX009 (ip), vehicle: saline",104 % of control
same,T/C,"dose: 3.12 mg/kg/injection, schedule: Q01DX009 (ip), vehicle: saline",95 % of control
same,T/C,"dose: 3.12 mg/kg/injection, schedule: Q01DX009 (ip), vehicle: suspension in saline",100 % of control and 97 % of control
same,T/C,"dose: 5.0 mg/kg/injection, schedule: Q01DX009 (ip), vehicle: saline",104 % of control
same,T/C,"dose: 6.25 mg/kg/injection, schedule: Q01DX009 (ip), vehicle: saline",92 % of control
same,T/C,"dose: 10.0 mg/kg/injection, schedule: Q01DX009 (ip), vehicle: saline",100 % of control
same,T/C,"dose: 12.5 mg/kg/injection, schedule: Q01DX009 (ip), vehicle: saline",89 % of control
same,T/C,"dose: 12.5 mg/kg/injection, schedule: Q01DX009 (ip), vehicle: suspension in saline",93 % of control and 98 % of control
same,T/C,"dose: 20.0 mg/kg/injection, schedule: Q01DX009 (ip), vehicle: saline",100 % of control
same,T/C,[2],90 % of control and 98 % of control
CCn1c2nc(=O)n(C)c(=O)c-2cc2ccccc21,T/C,[3],111 % of control
same,T/C,[4],111 % of control
same,T/C,[5],116 % of control
O=C(O)CNC(=O)C(=O)c1c[nH]c2ccc([N+](=O)[O-])cc12,T/C,[6],97 % of control
same,T/C,[7],97 % of control
same,T/C,[8],94 % of control
CCOC(=O)[C]1([Sn]([CH3])([CH3])[CH3])N=NC(C(=O)OC)=C1C(=O)OC (stereo not drawn),T/C,"dose: 0.78 mg/kg/injection, schedule: Q01DX009 (ip), vehicle: saline",98 % of control
same,T/C,"dose: 1.56 mg/kg/injection, schedule: Q01DX009 (ip), vehicle: saline",89 % of control
CC1CC(=O)NN1 (stereo not drawn),T/C,[9],100 % of control
same,T/C,"dose: 120.0 mg/kg/injection, schedule: Q01DX005 (ip), vehicle: Klucel (hydroxypropylcellulose) (HPC)",101 % of control
same,T/C,"dose: 240.0 mg/kg/injection, schedule: Q01DX005 (ip), vehicle: Klucel (hydroxypropylcellulose) (HPC)",107 % of control
O=C1c2c(Cl)c(Cl)c(Cl)c(Cl)c2C(=O)N1O,T/C,"dose: 6.25 mg/kg/injection, schedule: Q01DX009 (ip), vehicle: saline with Tween-80",100 % of control
same,T/C,"dose: 12.5 mg/kg/injection, schedule: Q01DX009 (ip), vehicle: saline with Tween-80",100 % of control
same,T/C,[10],104 % of control
O=C1C2=C(Nc3ccccc3N2)OC1c1ccc(Cl)cc1 (stereo not drawn),T/C,"dose: 7.5 mg/kg/injection, schedule: Q01DX005 (ip), vehicle: Klucel (hydroxypropylcellulose) (HPC)",103 % of control
same,T/C,[11],101 % of control
same,T/C,[12],101 % of control
Cc1ccc(Cl)cc1NC(=O)OCCN(C)C(=O)Nc1cc(Cl)ccc1C,T/C,[11],98 % of control
same,T/C,[12],90 % of control
same,T/C,[9],96 % of control
COC(=O)c1c2csc3ccccc3n-2c(=O)c1C,T/C,[6],102 % of control
same,T/C,[7],101 % of control
same,T/C,[8],95 % of control
O=C1CSC(=S)N1C1CC1,T/C,[3],95 % of control
same,T/C,[4],86 % of control
same,T/C,[5],87 % of control
C=CCNc1ncnc2sc(SC)nc12,T/C,"dose: 100.0 mg/kg/injection, schedule: Q04DX002 (ip), vehicle: distilled water + alcohol",100 % of control
same,T/C,"dose: 200.0 mg/kg/injection, schedule: Q04DX002 (ip), vehicle: distilled water + alcohol",104 % of control
same,T/C,"dose: 400.0 mg/kg/injection, schedule: Q04DX002 (ip), vehicle: distilled water + alcohol",99 % of control
Cc1cc(=O)[nH]c2cc(O)ccc12,T/C,[13],100 % of control
same,T/C,[14],93 % of control
same,T/C,[15],98 % of control
CC(C)(N)P(=O)(O)O,T/C,[2],96 % of control
same,T/C,"dose: 50.0 mg/kg/injection, schedule: Q01DX009 (ip), vehicle: suspension in saline",92 % of control
same,T/C,"dose: 100.0 mg/kg/injection, schedule: Q01DX009 (ip), vehicle: suspension in saline",100 % of control
same,T/C,"dose: 200.0 mg/kg/injection, schedule: Q01DX009 (ip), vehicle: suspension in saline",106 % of control
[Cl][Pd][Cl].[NH-]CCN1CC1,T/C,"dose: 25.0 mg/kg/injection, schedule: Q01DX009 (ip), vehicle: Klucel (hydroxypropylcellulose) (HPC)",119 % of control
same,T/C,"dose: 50.0 mg/kg/injection, schedule: Q01DX009 (ip), vehicle: Klucel (hydroxypropylcellulose) (HPC)",112 % of control
same,T/C,"dose: 100.0 mg/kg/injection, schedule: Q01DX009 (ip), vehicle: Klucel (hydroxypropylcellulose) (HPC)",114 % of control
C(=N\NC1=NCCN1)/c1ccncc1,T/C,[16],100 % of control
same,T/C,[17],94 % of control
O=C1CC2CCC1CC2c1cnc[nH]1 (stereo not drawn),T/C,"dose: 25.0 mg/kg/injection, schedule: Q04DX002 (ip), vehicle: saline with Tween-80",93 % of control
same,T/C,"dose: 50.0 mg/kg/injection, schedule: Q04DX002 (ip), vehicle: saline with Tween-80",100 % of control
same,T/C,[1],102 % of control
Cc1cc(C(=O)O)c(C)c([N+](=O)[O-])c1,T/C,[3],88 % of control
same,T/C,[4],104 % of control
same,T/C,[5],98 % of control
same,T/C,[18],100 % of control
NC(=O)n1ncnc1N,T/C,[16],95 % of control
same,T/C,[3],107 % of control
same,T/C,[17],100 % of control
same,T/C,[4],102 % of control
same,T/C,"dose: 200.0 mg/kg/injection, schedule: Q01DX005 (ip), vehicle: saline",102 % of control
same,T/C,[5],100 % of control
same,T/C,[18],117 % of control
CC([NH-])C[NH-].[Cl][Pt+2][Cl] (stereo not drawn),T/C,"dose: 3.12 mg/kg/injection, schedule: Q01DX001 (ip), vehicle: Klucel (hydroxypropylcellulose) (HPC)",157 % of control
same,T/C,"dose: 12.5 mg/kg/injection, schedule: Q01DX001 (ip), vehicle: Klucel (hydroxypropylcellulose) (HPC)",163 % of control
CN(C)/N=N/c1nc[nH]c1C(N)=O,T/C,"dose: 12.5 mg/kg/injection, schedule: Q01DX005 (ip), vehicle: Klucel (hydroxypropylcellulose) (HPC)",95 % of control
same,T/C,[13],105 % of control
same,T/C,[10],123 % of control
same,T/C,[14],105 % of control
same,T/C,"dose: 50.0 mg/kg/injection, schedule: Q01DX005 (ip), vehicle: saline with Tween-80",106 % of control
same,T/C,[3],120 % of control
same,T/C,[15],115 % of control
same,T/C,"dose: 100.0 mg/kg/injection, schedule: Q01DX005 (ip), vehicle: saline with Tween-80",119 % of control
same,T/C,[4],120 % of control
same,T/C,"dose: 150.0 mg/kg/injection, schedule: Q01DX005 (ip), vehicle: distilled water + Tween-80",166 % of control
same,T/C,"dose: 200.0 mg/kg/injection, schedule: Q01DX005 (ip), vehicle: Klucel (hydroxypropylcellulose) (HPC)",122 % of control
same,T/C,[5],103 % of control
same,T/C,"dose: 300.0 mg/kg/injection, schedule: Q01DX005 (ip), vehicle: distilled water + Tween-80",156 % of control
same,T/C,"dose: 400.0 mg/kg/injection, schedule: Q01DX005 (ip), vehicle: saline with Tween-80",121 % of control
same,T/C,[18],86 % of control

# Reference: PubChem BioAssay AID330 (DTP/NCI, 2004)
